{"source": "patent US6548553B2", "about": "“Styryl sulfone anticancer agents” (Temple University-of the Commonwealth System of Higher …, priority 1997, dated 2003)", "key": {"H157": {"tested_on": "H157", "assay": "GI50 growth inhibition, trypan blue cell count", "format": "cell-based, human", "details": "Homo sapiens, NCI-H157; lung, non-small cell; 96 hours after addition", "experimental": "(§1) The human carcinoma cell lines listed in Table 5 below were purchased from ATCC and grown in an appropriate growth medium containing 10% fetal bovine serum (FBS) and antibiotics. The cells were plated at a cell density of 1.0×10^5 cells per […] in 6-well dishes. The cells were treated with various concentrations of (E)-fluorostyryl-4-bromobenzylsulfone 24 hours after plating in a total volume of 1 ml of medium using dimethylsulfoxide (DMSO) as a solvent for the compound. Control cells were treated with DMSO alone. The total number of viable cells was determined 96 hours after the addition of the compound by counting the cells in each well using a hemacytometer after trypan blue staining (viable cells exclude the stain). The counts were done in duplicate and the average was graphed in FIG. 8 as a percentage of the non-treated control group."}, "DLD-1": {"tested_on": "DLD-1", "assay": "GI50 growth inhibition, trypan blue cell count", "format": "cell-based, human", "details": "Homo sapiens, DLD-1; cob-rectal; 96 hours after addition", "experimental": "as §1"}, "U87": {"tested_on": "U87", "assay": "GI50 growth inhibition, trypan blue cell count", "format": "cell-based, human", "details": "Homo sapiens, U-87 MG; glioblastoma; 96 hours after addition", "experimental": "as §1"}, "MIA-PaCa-2": {"tested_on": "MIA-PaCa-2", "assay": "GI50 growth inhibition, trypan blue cell count", "format": "cell-based, human", "details": "Homo sapiens, MIA PaCa-2; pancreatic; 96 hours after addition", "experimental": "as §1"}, "[1]": {"assay": "Trypan blue exclusion viability assay, normal fibroblasts", "format": "cell-based", "design": "viability at 48 h: dose or concentration left out as unconfirmed", "details": "mouse, NIH3T3 cells (normal fibroblasts)", "experimental": "(§2) The effect of the styryl sulfones on the growth of normal and tumor cells of breast and prostate was examine utilizing four cell lines, NIH3T3, MCF-7, BT-20 and LnCap. NIH/3T3 cells represent normal fibroblasts while LnCap is an androgen-dependent prostate tumor cell line. MCF-7 is an estrogen-responsive breast tumor cell line, while BT-20 is an estrogen-unresponsive breast tumor cell line. MCF-7 and BT-20 were grown in Dulbecco's modified Eagle's medium (DMEM) containing 10% fetal bovine serum supplemented with penicillin and streptomycin. LnCaP were cultured in RPMI with 10% fetal bovine serum containing penicillin and streptomycin. NIH3T3 cells were grown in DMEM containing 10% calf serum supplemented with penicillin and streptomycin. All cell cultures were maintained at 37° C. in a humidified atmosphere of 5% CO2.\n(§3) The compounds identified in Tables 2, 3 and 4 inhibited cell growth and induced cell death, to varying degrees. The tables list the percent viable LnCap and MCF-7 cells treated with 5.0 μM compound.\n(§4) The percentage of living cells was determined by Trypan blue exclusion. The control cells were treated with DMSO to determine the effect of solvent on cells. […] Under these conditions, only 2-3% of NIH3T3 cells were non-viable at both the concentrations. […] After 48 hours incubation, 60-75% of the LnCaP, BT-20 and MCF-7 cells were dead at […] FRI-20 concentration, whereas more than 90% of NIH3T3 cells were viable (FIG. 2A)."}, "[2]": {"tested_on": "LnCaP, BT-20 and MCF-7 cells", "assay": "Trypan blue exclusion viability/proliferation assay (dose and time course)", "format": "cell-based", "experimental": "as §2, §3\nas §4, with “NIH3T3, MCF-7, BT-20 and LnCaP cells were treated with FRI-20 dissolved in DMSO to concentrations of 250 nM, 500 nM, 1 μM, 2.5 μM and 5 μM and examined for their proliferation and viability after 48 hours (FIG. 2A). The percentage” for “The percentage”\nNIH/3T3, MCF-7, BT-20 and LnCap were treated with FRI-20 at 2.5 μM and the number of viable cells was determined at 12, 24, 48 and 72 hours by Trypan blue exclusion."}, "TE 354": {"tested_on": "TE 354", "assay": "GI50 growth inhibition, trypan blue cell count", "format": "cell-based", "details": "Homo sapiens; basal cell carcinoma; 96 hours after addition", "experimental": "as §1\n(§5) Applying the same protocol as in Example 34, the GI50 for compound FRI-20 treatment of the cell lines in Table 6 was determined: […]"}, "SK-ov-3": {"tested_on": "SK-ov-3", "assay": "GI50 growth inhibition, trypan blue cell count", "format": "cell-based", "details": "Homo sapiens, ovarian, 96 hours after addition", "experimental": "as §1, §5"}, "Hs 456.BT": {"tested_on": "Hs 456.BT", "assay": "GI50 growth inhibition, trypan blue cell count", "format": "cell-based", "details": "Homo sapiens; benign skin lesion; 96 hours after addition", "experimental": "as §1, §5"}, "SK-MEL-3": {"tested_on": "SK-MEL-3", "assay": "GI50 growth inhibition, trypan blue cell count", "format": "cell-based", "details": "Homo sapiens, SK-MEL3; melanoma; 96 hours after addition", "experimental": "as §1, §5"}, "CAKI-2": {"tested_on": "CAKI-2", "assay": "GI50 growth inhibition, trypan blue cell count", "format": "cell-based", "details": "Homo sapiens, renal, 96 hours after addition", "experimental": "as §1, §5"}, "OvCar-3": {"tested_on": "OvCar-3", "assay": "GI50 growth inhibition, trypan blue cell count", "format": "cell-based", "details": "Homo sapiens, ovarian, 96 hours after addition", "experimental": "as §1, §5"}, "Hs 416.T": {"tested_on": "Hs 416.T", "assay": "GI50 growth inhibition, trypan blue cell count", "format": "cell-based", "details": "Homo sapiens; squamous papilloma; 96 hours after addition", "experimental": "as §1, §5"}, "H80": {"tested_on": "H80", "assay": "GI50 growth inhibition, trypan blue cell count", "format": "cell-based", "details": "Homo sapiens; glioblastoma; 96 hours after addition", "experimental": "as §1, §5"}, "A431": {"tested_on": "A431", "assay": "GI50 growth inhibition, trypan blue cell count", "format": "cell-based", "details": "Homo sapiens, A-431; epidermoid; 96 hours after addition", "experimental": "as §1, §5"}, "MES-SA": {"tested_on": "MES-SA", "assay": "GI50 growth inhibition, trypan blue cell count", "format": "cell-based", "details": "Homo sapiens, uterine sarcoma, 96 hours after addition", "experimental": "as §1, §5"}, "LnCaP and MCF-7 cells": {"tested_on": "LnCaP and MCF-7 cells", "assay": "Trypan blue exclusion viability assay, Tables 2-4", "format": "cell-based", "details": "5.0 μM compound, 48 hours, read-out: % viable LnCaP and MCF-7 cells", "experimental": "as §2\nas §3, with “Cells were treated with test compound at 2.5 μM or 5.0 μM concentration and cell viability was determined after 48 hours by the Trypan blue exclusion method. The compounds” for “The compounds”"}}, "data": [{"smiles": "O=S(=O)(/C=C/c1ccc(F)cc1)Cc1ccc(Cl)cc1", "note": "[Example 11, E-4-fluorostyryl 4-chlorobenzyl Sulfone]", "values": [{"measurement": "GI50", "setting": "H157", "result": 1500, "unit": "nM"}, {"measurement": "GI50", "setting": "DLD-1", "result": 1000, "unit": "nM"}, {"measurement": "GI50", "setting": "U87", "result": 2000, "unit": "nM"}, {"measurement": "GI50", "setting": "MIA-PaCa-2", "result": 500, "unit": "nM"}, {"measurement": "cytotoxicity at 48 h", "setting": "[1]; 250 nM and 500 nM, 48 hours, read-out: non-viable NIH3T3 cells", "result": "2 to 3", "unit": "%"}, {"measurement": "viability at 48 h, 5 µM", "setting": "[1]; 5 μM", "result": "> 80", "unit": "%"}, {"measurement": "viability at 48 h", "setting": "[1]; 48 hours incubation, read-out: viable NIH3T3 cells", "result": "> 80", "unit": "%"}, {"measurement": "cell death", "setting": "[2]; 250 nM, 48 hours", "result": "about 10%"}, {"measurement": "inhibition at 0.25 µM", "setting": "[2]; 250 nM, 48 hours, read-out: inhibition in cell division compared to untreated cells", "result": "15 to 20", "unit": "%"}, {"measurement": "cell death", "setting": "[2]; 500 nM, 48 hours", "result": "25-30%"}, {"measurement": "inhibition at 0.5 µM", "setting": "[2]; 500 nM, 48 hours, read-out: inhibition in cell proliferation", "result": "30 to 50", "unit": "%"}, {"measurement": "cell growth inhibition with loss of cell viability", "setting": "[2]; 1 μM, 48 hours", "result": "greatly inhibited"}, {"measurement": "dead cells", "setting": "[2]; 2.5 µM, 48 hours incubation", "result": "60-75%"}, {"measurement": "dead cells", "setting": "[2]; 2.5 μM, 72 hours of treatment", "result": "more than 95%"}, {"measurement": "cell death", "setting": "[2]; 5 μM, 48 hours", "result": "~90", "unit": "%"}, {"measurement": "GI50", "setting": "TE 354", "result": 4000, "unit": "nM"}, {"measurement": "GI50", "setting": "SK-ov-3", "result": 1500, "unit": "nM"}, {"measurement": "GI50", "setting": "Hs 456.BT", "result": 3000, "unit": "nM"}, {"measurement": "GI50", "setting": "SK-MEL-3", "result": 2000, "unit": "nM"}, {"measurement": "GI50", "setting": "CAKI-2", "result": 1000, "unit": "nM"}, {"measurement": "GI50", "setting": "OvCar-3", "result": 1500, "unit": "nM"}, {"measurement": "GI50", "setting": "Hs 416.T", "result": 4000, "unit": "nM"}, {"measurement": "GI50", "setting": "H80", "result": 1500, "unit": "nM"}, {"measurement": "GI50", "setting": "A431", "result": 800, "unit": "nM"}, {"measurement": "GI50", "setting": "MES-SA", "result": 1000, "unit": "nM"}, {"measurement": "viability at 5 µM", "setting": "LnCaP and MCF-7 cells", "result": 6, "unit": "%"}]}]}
